# Test results from the supplement of paper PMC10307832.
# Assays:
# Assay in all cases: relative viability (nuclei count vs DMSO), 5 days (fraction); higher = more cells survive
# ChaGo-K-1 = tested on: ChaGo-K-1
# How it was run: (§1)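 Dosing by pin tool came one day after lung cancer cell lines were seeded in 1536-well plates, using either one drug or a fixed anchor-drug dose plus five library-drug doses (not always all listed) in √10 steps. After 5 days, nuclei were counted on 4× images. Relative viability is treated-well nuclei count divided by vehicle-well nuclei count, and values are medians of duplicate plates.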
# HARA = tested on: HARA
# How it was run: as §1
# NCI-H441 = tested on: NCI-H441
# How it was run: as §1
# HCC-827 = tested on: HCC-827
# How it was run: as §1
# LCLC-97TM1 = tested on: LCLC-97TM1
# How it was run: as §1
# NCI-H1437 = tested on: NCI-H1437
# How it was run: as §1
# NCI-H322M = tested on: NCI-H322M
# How it was run: as §1
# EMC-BAC-2 = tested on: EMC-BAC-2
# How it was run: as §1
# PC-3 [JPC-3] = tested on: PC-3 [JPC-3]
# How it was run: as §1
# NCI-H460 = tested on: NCI-H460
# How it was run: as §1
# NCI-H661 = tested on: NCI-H661
# How it was run: as §1
# EKVX = tested on: EKVX
# How it was run: as §1
# H3255 = tested on: H3255
# How it was run: as §1
# NCI-H1915 = tested on: NCI-H1915
# How it was run: as §1
# HCC-15 = tested on: HCC-15
# How it was run: as §1
# NCI-H1793 = tested on: NCI-H1793
# How it was run: as §1
# LU99A = tested on: LU99A
# How it was run: as §1
# NCI-H1944 = tested on: NCI-H1944
# How it was run: as §1
# LC-2-ad = tested on: LC-2-ad
# How it was run: as §1
# NCI-H1792 = tested on: NCI-H1792
# How it was run: as §1
# NCI-H2126 = tested on: NCI-H2126
# How it was run: as §1
# SK-LU-1 = tested on: SK-LU-1
# How it was run: as §1
# NCI-H23 = tested on: NCI-H23
# How it was run: as §1
smiles,measurement,setting,value
Cc1cnc(-c2cnc(NCCNc3ccc(C#N)cn3)nc2-c2ccc(Cl)cc2Cl)[nH]1 + CC(=O)c1c(C)c2cnc(Nc3ccc(N4CCNCC4)cn3)nc2n(C2CCCC2)c1=O [Palbociclib] (partner 0.5 µM),relative viability,ChaGo-K-1; first compound 0.08 µM,0.929
same,relative viability,ChaGo-K-1; first compound 0.253 µM,0.807
same,relative viability,ChaGo-K-1; first compound 0.8 µM,0.903
same,relative viability,ChaGo-K-1; first compound 2.53 µM,0.833
same,relative viability,HARA; first compound 0.08 µM,0.296
same,relative viability,HARA; first compound 0.253 µM,0.288
same,relative viability,HARA; first compound 0.8 µM,0.262
same,relative viability,HARA; first compound 2.53 µM,0.241
same,relative viability,NCI-H441; first compound 0.08 µM,0.224
same,relative viability,NCI-H441; first compound 0.8 µM,0.258
same,relative viability,NCI-H441; first compound 2.53 µM,0.185
same,relative viability,HCC-827; first compound 0.08 µM,0.48
same,relative viability,HCC-827; first compound 0.253 µM,0.371
same,relative viability,HCC-827; first compound 0.8 µM,0.484
same,relative viability,HCC-827; first compound 2.53 µM,0.387
same,relative viability,LCLC-97TM1; first compound 0.08 µM,0.282
same,relative viability,LCLC-97TM1; first compound 0.253 µM,0.17
same,relative viability,LCLC-97TM1; first compound 0.8 µM,0.215
same,relative viability,LCLC-97TM1; first compound 2.53 µM,0.209
same,relative viability,NCI-H1437; first compound 0.08 µM,0.355
same,relative viability,NCI-H1437; first compound 0.253 µM,0.303
same,relative viability,NCI-H1437; first compound 0.8 µM,0.281
same,relative viability,NCI-H1437; first compound 2.53 µM,0.285
same,relative viability,NCI-H322M; first compound 0.08 µM,0.467
same,relative viability,NCI-H322M; first compound 0.253 µM,0.553
same,relative viability,NCI-H322M; first compound 0.8 µM,0.477
same,relative viability,NCI-H322M; first compound 2.53 µM,0.588
same,relative viability,EMC-BAC-2; first compound 0.08 µM,0.544
same,relative viability,EMC-BAC-2; first compound 0.253 µM,0.523
same,relative viability,EMC-BAC-2; first compound 0.8 µM,0.543
same,relative viability,EMC-BAC-2; first compound 2.53 µM,0.512
same,relative viability,PC-3 [JPC-3]; first compound 0.08 µM,0.533
same,relative viability,PC-3 [JPC-3]; first compound 0.253 µM,0.488
same,relative viability,PC-3 [JPC-3]; first compound 0.8 µM,0.543
same,relative viability,PC-3 [JPC-3]; first compound 2.53 µM,0.503
same,relative viability,NCI-H460; first compound 0.08 µM,0.154
same,relative viability,NCI-H460; first compound 0.253 µM,0.0849
same,relative viability,NCI-H460; first compound 0.8 µM,0.135
same,relative viability,NCI-H460; first compound 2.53 µM,0.146
same,relative viability,NCI-H661; first compound 0.08 µM,0.44
same,relative viability,NCI-H661; first compound 0.253 µM,0.433
same,relative viability,NCI-H661; first compound 0.8 µM,0.432
same,relative viability,NCI-H661; first compound 2.53 µM,0.506
same,relative viability,EKVX; first compound 0.08 µM,0.493
same,relative viability,EKVX; first compound 0.253 µM,0.316
same,relative viability,EKVX; first compound 0.8 µM,0.417
same,relative viability,EKVX; first compound 2.53 µM,0.444
same,relative viability,H3255; first compound 0.08 µM,0.299
same,relative viability,H3255; first compound 0.253 µM,0.34
same,relative viability,H3255; first compound 0.8 µM,0.317
same,relative viability,H3255; first compound 2.53 µM,0.306
same,relative viability,NCI-H1915; first compound 0.08 µM,0.547
same,relative viability,NCI-H1915; first compound 0.8 µM,0.571
same,relative viability,NCI-H1915; first compound 2.53 µM,0.601
same,relative viability,HCC-15; first compound 0.08 µM,0.689
same,relative viability,HCC-15; first compound 0.253 µM,0.543
same,relative viability,HCC-15; first compound 0.8 µM,0.69
same,relative viability,HCC-15; first compound 2.53 µM,0.724
same,relative viability,NCI-H1793; first compound 0.08 µM,0.336
same,relative viability,NCI-H1793; first compound 0.253 µM,0.288
same,relative viability,NCI-H1793; first compound 0.8 µM,0.282
same,relative viability,NCI-H1793; first compound 2.53 µM,0.386
same,relative viability,LU99A; first compound 0.08 µM,0.375
same,relative viability,LU99A; first compound 0.253 µM,0.388
same,relative viability,LU99A; first compound 0.8 µM,0.442
same,relative viability,LU99A; first compound 2.53 µM,0.389
same,relative viability,NCI-H1944; first compound 0.08 µM,0.341
same,relative viability,NCI-H1944; first compound 0.8 µM,0.366
same,relative viability,NCI-H1944; first compound 2.53 µM,0.322
same,relative viability,LC-2-ad; first compound 0.08 µM,0.473
same,relative viability,LC-2-ad; first compound 0.8 µM,0.485
same,relative viability,LC-2-ad; first compound 2.53 µM,0.436
same,relative viability,NCI-H1792; first compound 0.08 µM,0.677
same,relative viability,NCI-H1792; first compound 0.253 µM,0.551
same,relative viability,NCI-H1792; first compound 0.8 µM,0.646
same,relative viability,NCI-H1792; first compound 2.53 µM,0.625
same,relative viability,NCI-H2126; first compound 0.08 µM,0.369
same,relative viability,NCI-H2126; first compound 0.253 µM,0.355
same,relative viability,NCI-H2126; first compound 0.8 µM,0.331
same,relative viability,NCI-H2126; first compound 2.53 µM,0.341
same,relative viability,SK-LU-1; first compound 0.08 µM,0.417
same,relative viability,SK-LU-1; first compound 0.253 µM,0.474
same,relative viability,SK-LU-1; first compound 0.8 µM,0.337
same,relative viability,SK-LU-1; first compound 2.53 µM,0.524
same,relative viability,NCI-H23; first compound 0.08 µM,0.378
same,relative viability,NCI-H23; first compound 0.253 µM,0.49
same,relative viability,NCI-H23; first compound 0.8 µM,0.515
same,relative viability,NCI-H23; first compound 2.53 µM,0.616
